Data as given in the supplement of paper PMC11451515.

Columns and labels:
Assay in all cases: AUC of viability dose-response curve (% viability x log10 dose units); higher = less sensitive
Conditions in all cases: 48 h
[1] = test system: NOMO1
How it was run: (§1)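 Library compounds in DMSO were applied for 48 h at 37°C at 11 threefold doses (47 μM to 0.79 nM) to medium-adapted leukemia cells in 1536-well plates holding 500 or 1000 cells/well. Luminescence from CellTiter-Glo One was normalised plate by plate against DMSO and cell-free wells. Area under the curve came from trapezoidal integration of a log-logistic fit, after scaling curves that rose above full viability and discarding those that failed quality control. The fit had four parameters and used log10 doses.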

[2] = test system: SEM cells
How it was run: as §1

[3] = test system: P12-Ichikawa
How it was run: as §1

[4] = RPMI 5 mM glucose + 10% dialyzed FBS

| Structure (SMILES) | AUC of viability dose-response curve ([1]; HPLM + 10% dialyzed FBS) | AUC of viability dose-response curve ([1]; RPMI 5 mM glucose + 10% FBS) | AUC of viability dose-response curve [1, 4] | AUC of viability dose-response curve ([2]; HPLM + 10% dialyzed FBS) | AUC of viability dose-response curve ([2]; RPMI 5 mM glucose + 10% FBS) | AUC of viability dose-response curve [2, 4] | AUC of viability dose-response curve ([3]; HPLM + 10% dialyzed FBS) | AUC of viability dose-response curve ([3]; RPMI 5 mM glucose + 10% FBS) | AUC of viability dose-response curve [3, 4] |
| --- | --- | --- | --- | --- | --- | --- | --- | --- | --- |
| CCCCCCCCOc1ccccc1C(=O)Nc1ccc(C(=O)OCC[N+](C)(CC)CC)cc1 | 446 | 401 | 413 | 435 | 414 | 460 | 437 | 444 | 408 |
| CCc1c(O)cc(O)c(C(=O)c2ccc(OCCN3CCOCC3)c(OC)c2)c1CC(=O)N(CCOC)CCOC | 359 | 367 | 375 | 383 | 347 | 355 | 399 | 384 | 383 |
| CCCNCC(O)COc1ccccc1C(=O)CCc1ccccc1 (stereo not drawn) | 457 | 391 | 473 | 438 | 444 | 432 | 450 | 452 | 458 |
| CC(C[N+](C)(C)C)OC(N)=O (stereo not drawn) | 462 | 456 | 465 | 462 | 456 | 477 | 469 | 456 | 468 |
| O=P1(N(CCCl)CCCl)NCCCO1 (stereo not drawn) | 416 | 436 | 430 | 413 | 405 | 406 | 409 | 424 | 448 |
| CN1CC/C(CC1)=C3\c4ccccc4CC(=O)c2sccc23 | 462 | 463 | 463 | 460 | 472 | 473 | 472 | 467 | 470 |
| O=C(O)c1ccc(-c2c[nH]c3ncc(-c4ccccc4)cc23)cc1C1CCCC1 | 466 | 471 | 468 | 435 | 404 | 400 | 458 | 453 | 450 |
| CN(C)/[N+]([O-])=N/Oc1cc(ON[N+](=O)N2CCN(C(=O)c3cc(Cc4n[nH]c(=O)c5ccccc45)ccc3F)CC2)c([N+](=O)[O-])cc1[N+](=O)[O-] | 438 | 460 | 441 | 444 | 446 | 448 | 467 | 469 | 466 |
| CN1\N=N/C2=C(N=C[N]2C1=O)C(N)=O | 445 | 458 | 450 | 331 | 318 | 306 | 466 | 466 | 452 |
| COc1ccc(CC2c3cc(OC)c(OC)cc3CC[N+]2(C)CCC(=O)OCCCCCOC(=O)CC[N+]2(C)CCc3cc(OC)c(OC)cc3C2Cc2ccc(OC)c(OC)c2)cc1OC (stereo not drawn) | 406 | 390 | 375 | 412 | 394 | 401 | 439 | 437 | 427 |
| COc1cc(Nc2ncc(F)c(Nc3ccc4c(n3)N(COP(=O)(O)O)C(=O)C(C)(C)O4)n2)cc(OC)c1OC | 472 | 453 | 438 | 287 | 292 | 245 | 470 | 456 | 457 |
| COC(=O)Nc1ccc(-c2nc(N3CCOCC3)c3cnn(C4CCN(Cc5cccnc5)CC4)c3n2)cc1 | 298 | 361 | 319 | 292 | 242 | 249 | 355 | 323 | 314 |
| NCCCC(O)(P(=O)(O)O)P(=O)(O)O.O.O.O.[Na+] | 416 | 439 | 456 | 402 | 366 | 382 | 395 | 421 | 398 |
| CO[C@@H]1[C@@H](OC(N)=O)[C@@H](O)[C@H](OC2=CC=C3\C(=C(NC(=O)C4=CC=C([O-])C(=C4)CC=C(C)C)/C(=O)OC3=C2C)O)OC1(C)C | 437 | 451 | 437 | 476 | 445 | 461 | 449 | 465 | 464 |
| COc1nccc(-c2c(-c3ccc(F)cc3)ncn2C2CCC(O)CC2)n1 (stereo not drawn) | 463 | 458 | 465 | 459 | 320 | 438 | 443 | 465 | 462 |
| CN[C@H]1[C@H](O[C@@H]2[C@H](O[C@@H]3[C@@H](O)[C@@H](O)[C@@H](NC(=N)N)[C@@H](O)[C@H]3NC(=N)N)O[C@H](C)[C@@]2(O)C=O)O[C@@H](CO)[C@@H](O)[C@H]1O | 412 | 456 | 449 | 386 | 432 | 455 | 452 | 450 | 424 |

| Structure (SMILES) | AUC of viability dose-response curve ([1]; HPLM + 10% dialyzed FBS) | AUC of viability dose-response curve ([1]; RPMI 5 mM glucose + 10% FBS) | AUC of viability dose-response curve [1, 4] | AUC of viability dose-response curve ([2]; HPLM + 10% dialyzed FBS) | AUC of viability dose-response curve ([2]; RPMI 5 mM glucose + 10% FBS) | AUC of viability dose-response curve [2, 4] | AUC of viability dose-response curve ([3]; HPLM + 10% dialyzed FBS) | AUC of viability dose-response curve ([3]; RPMI 5 mM glucose + 10% FBS) | AUC of viability dose-response curve [3, 4] |
| --- | --- | --- | --- | --- | --- | --- | --- | --- | --- |
| Cc1ccc(NC(=O)Nc2cc(C(F)(F)F)ccc2F)cc1Nc1ccc2c(c1)NC(=O)/C2=C\c1ccc[nH]1 | 455 | 460 | 449 | 439 | 440 | 428 | 466 | 462 | 454 |
| O=C(C1CC1)N1CC[C@@H](Cn2c(-c3ccc(-c4ccc5occc5c4)cc3)nc3cnccc32)C1 | 469 | 456 | 468 | 457 | 465 | 462 | 461 | 470 | 469 |
| Cc1ccc(NC(=O)c2cccc(N(C)C)c2)cc1NC(=O)c1ccc(O)cc1 | 472 | 464 | 470 | 457 | 474 | 450 | 456 | 461 | 446 |
| C[N]1N=CC2=C1C=C(C(=C2)OC3=CC=C(NC(=O)\C4=C\C=C(\C)N(C4=O)C5=CC=C(F)C=C5)C=C3F)C6=C[NH]N=C6 | 401 | 410 | 413 | 268 | 266 | 255 | 396 | 397 | 404 |
| CN1/C=C(\N=C(NC2=CC=C(C=C2)C(=O)N3CCOCC3)/C1=O)/C4=C(C)C(=CC=C4)NC(=O)C5=CC=C(C=C5)C(C)(C)C | 466 | 430 | 454 | 468 | 443 | 458 | 458 | 466 | 467 |
| CCCCOc1ccc(CC(=O)NO)cc1 | 417 | 459 | 439 | 440 | 463 | 458 | 464 | 457 | 454 |
| CC1=CC=C2\N=C/3N(CC[C@@]3(O)C(=O)C2=C1)C4=CC=CC=C4 | 452 | 403 | 425 | 431 | 438 | 413 | 442 | 420 | 400 |
| Cc1cc(SCc2sc(-c3ccc(C(F)(F)F)cc3)nc2C)ccc1OCC(=O)O | 447 | 443 | 463 | 453 | 459 | 457 | 471 | 459 | 458 |
| NC(=O)c1cnc(-c2ccc(C3(N)CCC3)cc2)c(-c2ccccc2)c1 | 428 | 468 | 460 | 400 | 396 | 394 | 428 | 448 | 432 |
| CCOC(CN1C(=O)[C@](CC(=O)Nc2ccc(C)cc2)(NC(=O)Nc2ccc(C)cc2)c2ccccc21)OCC | 448 | 460 | 458 | 447 | 437 | 466 | 458 | 461 | 460 |
| CCc1cccc2c3c([nH]c12)C(CC)(CC(=O)O)OCC3 (stereo not drawn) | 452 | 441 | 427 | 454 | 409 | 448 | 466 | 448 | 465 |
| CC(=O)Oc1cc2c(s1)CCN(C(C(=O)C1CC1)c1ccccc1F)C2.Cl (stereo not drawn) | 386 | 396 | 396 | 466 | 431 | 453 | 468 | 455 | 452 |
| N#CC1(c2ccc(NC(=O)c3cccnc3NCc3ccncc3)cc2)CCCC1 | 442 | 475 | 463 | 442 | 431 | 412 | 437 | 461 | 435 |
| COC/1=C/[C@@H]2[C@@H]3CC4=C(C(=C(OC)C=C4)O)[C@]2(CCN3C)CC1=O | 476 | 459 | 471 | 472 | 469 | 464 | 473 | 467 | 466 |
| CC[C@H](NC(C)C)[C@H](O)c1ccc(O)c2[nH]c(=O)ccc12 | 470 | 447 | 463 | 442 | 472 | 474 | 451 | 462 | 456 |
| CCOc1cc(/C=C2/C(=O)N(c3ccccc3)N=C2C)cc(Cl)c1OCC(=O)OC | 432 | 413 | 425 | 386 | 422 | 383 | 424 | 408 | 418 |
